In US10829520B2, “Beta-hairpin peptidomimetics” (POLYPHOR AG, priority 2015, dated 2020):
Where a SMILES comes first, the peptide text is derived from it. Bridges are numbered along the chain shown (N, C = ends). Roman numbers before positions name the chains, in order. [ ]: non-standard residue; d: D form. Hyp = O=C(O)[C@@H]1C[C@@H](O)CN1; aThr = C[C@H](O)[C@H](N)C(=O)O; Tle = CC(C)(C)[C@H](N)C(=O)O; dDab = NCC[C@@H](N)C(=O)O; Nle = CCCC[C@H](N)C(=O)O; Orn = NCCC[C@H](N)C(=O)O; Dab = NCC[C@H](N)C(=O)O; Dap = NC[C@H](N)C(=O)O

Legend:
Type in all cases: cell-based
[1] = test system: Acinetobacter baumannii 872842; conditions: 872842
[2] = test system: Acinetobacter baumannii DSM 30008; conditions: DSM 30008
How it was run: (§1)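 Using the CLSI reference method, each strain at approx. 10^6 CFU/mL was exposed to serially diluted peptide in MH-II broth with 0.002% P-80. After 18-20 h at 35° C, the lowest concentration showing no visible growth gave the MIC.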

Escherichia coli 926415 = conditions: 926415
[3] = test system: Escherichia coli ATCC 25922; conditions: ATCC 25922
How it was run: as §1

[4] = test system: Klebsiella pneumoniae 968733; conditions: 968733
[5] = test system: Klebsiella pneumoniae SSI #3010; conditions: SSI #3010
How it was run: as §1

[6] = test system: Pseudomonas aeruginosa ATCC 27853; conditions: ATCC 27853
How it was run: as §1

[7] = test system: human red blood cells (hRBC); assay: Hemolysis of human red blood cells; conditions: red cells of human, 1 h
How it was run: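 Hemolysis was read as supernatant absorbance at 540 nm and expressed as a percentage of Triton X-100 (2.5%) lysis. Washed human red cells (20% v/v) had been exposed to each peptide at 100 μg/mL for 1 h at 37° C.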

SMILES	Acinetobacter baumannii 872842 MIC [1] [µg/mL]	Acinetobacter baumannii DSM 30008 MIC [2] [µg/mL]	Escherichia coli 926415 MIC (Escherichia coli 926415) [µg/mL]	Escherichia coli ATCC 25922 MIC [3] [µg/mL]	Klebsiella pneumoniae 968733 MIC [4] [µg/mL]	Klebsiella pneumoniae SSI #3010 MIC [5] [µg/mL]	Pseudomonas aeruginosa ATCC 27853 MIC [6] [µg/mL]	Hemolysis at 100 μg/mL ([7]; 100 μg/mL) [%]	Hemolysis at 100 μg/mL [7]; 100 [%]
CCCC[C@@H]1NC(=O)[C@@H]2CCCN2C(=O)[C@H]2CCCN2C(=O)[C@H](CO)NC(=O)[C@H](C)NC(=O)[C@H](C(C)(C)C)NC(=O)[C@@H](NC(=O)[C@H](Cc2c[nH]c3ccccc23)NC(=O)[C@@H](N)CCC(=O)O)CSSC[C@@H](C(=O)N[C@@H](CCN)C(=O)N[C@H](C(=O)N[C@@H](CCN)C(=O)N[C@H]2CCNC(=O)[C@H]([C@@H](C)O)NC(=O)[C@H](CCN)NC(=O)[C@H](CCN)NC(=O)[C@H](CC(C)C)NC(=O)[C@@H](Cc3ccccc3)NC(=O)[C@H](CCN)NC2=O)[C@@H](C)O)NC(=O)[C@H](Cc2ccc(O)cc2)NC(=O)[C@H](CO)NC1=O [Ex. 40] (H-EWC[Tle]AS[dP]P[Nle]SYC[Dab]T[Dab][Dab][Dab][dF]L[Dab][Dab]T; disulfide 3-12; lactam 16-C)	0.125	0.25	0.5	0.125	4	0.25	0.5	2	
CC(=O)N[C@@H](Cc1c[nH]c2ccccc12)C(=O)N[C@H]1CSSC[C@@H](C(=O)N[C@@H](CCCN)C(=O)N[C@H](C(=O)N[C@@H](CCN)C(=O)N[C@H]2CCNC(=O)[C@H]([C@@H](C)O)NC(=O)[C@H](CCN)NC(=O)[C@H](CCN)NC(=O)[C@H](CC(C)C)NC(=O)[C@@H](Cc3ccccc3)NC(=O)[C@H](CCN)NC2=O)[C@@H](C)O)NC(=O)[C@H](Cc2ccc(O)cc2)NC(=O)[C@H](CO)NC(=O)[C@H](CC(C)C)NC(=O)[C@@H]2CCCN2C(=O)[C@H]2CCCN2C(=O)[C@H](CO)NC(=O)[C@H](C)NC(=O)[C@H](Cc2c[nH]c3ccccc23)NC1=O [Ex. 111] (Ac-WCWAS[dP]PLSYC[Orn]T[Dab][Dab][Dab][dF]L[Dab][Dab]T; disulfide 2-11; lactam 15-C)	0.25	0.25	0.25	0.25	1	1	1	2	
CC(C)C[C@@H]1NC(=O)[C@@H](CC(C)C)NC(=O)[C@H](CCN)NC(=O)[C@@H](NC(=O)[C@H](CCN)NC(=O)[C@@H](NC(=O)[C@H](CCN)NC(=O)CC[C@@H]2NC(=O)[C@H](CCN)NC(=O)[C@H](Cc3ccc(O)cc3)NC(=O)[C@H](CO)NC(=O)[C@H](CC(C)C)NC(=O)[C@@H]3C[C@@H](O)CN3C(=O)[C@@H](C)NC(=O)[C@H](CO)NC(=O)[C@H]([C@@H](C)O)NC(=O)[C@H](C(C)C)NC(=O)[C@H](CCN)NC(=O)[C@H](Cc3c[nH]c4ccccc34)NC(=O)[C@H](CCN)NC(=O)[C@@H](CCN)NC2=O)[C@@H](C)O)CCNC(=O)[C@H]([C@@H](C)O)NC(=O)[C@H](CCN)NC(=O)[C@H](CCN)NC1=O [Ex. 88] (I: cyclo([Dab]E[dDab][Dab]W[Dab]VTS[dA][Hyp]LSY) / II: [Dab]T[Dab][Dab][Dab][dL]L[Dab][Dab]T; amide I:2-II:N; lactam II:4-II:C)	1	0.5	1	0.125	2	0.25	0.5		1
CCCC[C@@H]1NC(=O)[C@@H]2CCCN2C(=O)[C@H]2CCCN2C(=O)[C@H](CO)NC(=O)[C@H](C)NC(=O)[C@H](C(C)(C)C)NC(=O)[C@@H]2CCC(=O)NCC[C@H](NC(=O)[C@H](Cc3ccc(O)cc3)NC(=O)[C@H](CN)NC1=O)C(=O)N[C@@H](CCCN)C(=O)N[C@H](C(=O)N[C@H](CCN)C(=O)N[C@H]1CCNC(=O)[C@H]([C@@H](C)O)NC(=O)[C@H](CCN)NC(=O)[C@H](CCN)NC(=O)[C@H](CC(C)C)NC(=O)[C@@H](Cc3ccccc3)NC(=O)[C@H](CCN)NC1=O)CSSC[C@H](N)C(=O)N[C@@H](Cc1c[nH]c3ccccc13)C(=O)N2 [Ex. 210] (H-CWE[Tle]AS[dP]P[Nle][Dap]Y[Dab][Orn]C[dDab][Dab][Dab][dF]L[Dab][Dab]T; disulfide 1-14; lactam 3-12, 16-C)	2	1	0.5	0.25	4	0.5	1	1	
CCCC[C@@H]1NC(=O)[C@@H]2CCCN2C(=O)[C@H]2CCCN2C(=O)[C@H](CO)NC(=O)[C@H](C)NC(=O)[C@H](C(C)(C)C)NC(=O)[C@@H](NC(=O)[C@H](Cc2c[nH]c3ccccc23)NC(C)=O)CSSC[C@@H](C(=O)N[C@@H](CCN)C(=O)N[C@H](C(=O)N[C@@H](CCN)C(=O)N[C@H]2CCNC(=O)[C@H]([C@@H](C)O)NC(=O)[C@H](CCN)NC(=O)[C@H](CCN)NC(=O)[C@H](CC(C)C)NC(=O)[C@@H](Cc3ccccc3)NC(=O)[C@H](CCN)NC2=O)[C@H](C)O)NC(=O)[C@H](Cc2ccc(O)cc2)NC(=O)[C@H](CO)NC1=O [Ex. 21] (Ac-WC[Tle]AS[dP]P[Nle]SYC[Dab][aThr][Dab][Dab][Dab][dF]L[Dab][Dab]T; disulfide 2-11; lactam 15-C)	1	0.25	1	0.25	2	0.25	0.5	<1	
CCCC[C@@H]1NC(=O)[C@@H]2CCCN2C(=O)[C@H]2CCCN2C(=O)[C@H](CO)NC(=O)[C@H](C)NC(=O)[C@H](C(C)(C)C)NC(=O)[C@@H](NC(=O)[C@@H](N)Cc2c[nH]c3ccccc23)CSSC[C@@H](C(=O)N[C@@H](CCN)C(=O)N[C@H](C(=O)N[C@@H](CCN)C(=O)N[C@H]2CCNC(=O)[C@H]([C@@H](C)O)NC(=O)[C@H](CCN)NC(=O)[C@H](CCN)NC(=O)[C@H](CC(C)C)NC(=O)[C@@H](CC(C)C)NC(=O)[C@H](CCN)NC2=O)[C@@H](C)O)NC(=O)[C@H](Cc2ccc(O)cc2)NC(=O)[C@H](CO)NC1=O [Ex. 15] (H-WC[Tle]AS[dP]P[Nle]SYC[Dab]T[Dab][Dab][Dab][dL]L[Dab][Dab]T; disulfide 2-11; lactam 15-C)	0.25	0.5	0.125	0.125	2	0.25	1	1	
CCCC[C@@H]1NC(=O)[C@@H]2CCCN2C(=O)[C@H]2CCCN2C(=O)[C@H](CO)NC(=O)[C@H](CO)NC(=O)[C@H](C(C)(C)C)NC(=O)[C@@H](NC(=O)[C@@H](N)Cc2c[nH]c3ccccc23)CSSC[C@@H](C(=O)N[C@@H](CCCN)C(=O)N[C@H](Cc2ccccc2)C(=O)N[C@H](CCN)C(=O)N[C@H]2CCNC(=O)[C@H]([C@@H](C)O)NC(=O)[C@H](CCN)NC(=O)[C@H](CCN)NC(=O)[C@H](CC(C)C)NC(=O)[C@@H](Cc3ccccc3)NC(=O)[C@H](CCN)NC2=O)NC(=O)[C@H](Cc2ccc(O)cc2)NC(=O)[C@H](CO)NC1=O [Ex. 105] (H-WC[Tle]SS[dP]P[Nle]SYC[Orn][dF][dDab][Dab][Dab][dF]L[Dab][Dab]T; disulfide 2-11; lactam 15-C)	0.25	0.5	0.125	0.25	1	0.5	1	1.7	
CCCC[C@@H]1NC(=O)[C@@H]2CCCN2C(=O)[C@H]2CCCN2C(=O)[C@H](CO)NC(=O)[C@H](C)NC(=O)[C@H](C(C)(C)C)NC(=O)[C@@H](NC(=O)[C@H](Cc2c[nH]c3ccccc23)NC(=O)[C@@H](N)[C@@H](C)O)CSSC[C@@H](C(=O)N[C@@H](CCN)C(=O)N[C@H](C(=O)N[C@@H](CCN)C(=O)N[C@H]2CCNC(=O)[C@H]([C@@H](C)O)NC(=O)[C@H](CCN)NC(=O)[C@H](CCN)NC(=O)[C@H](CC(C)C)NC(=O)[C@@H](Cc3ccccc3)NC(=O)[C@H](CCN)NC2=O)[C@@H](C)O)NC(=O)[C@H](Cc2ccc(O)cc2)NC(=O)[C@H](CO)NC1=O [Ex. 43] (H-TWC[Tle]AS[dP]P[Nle]SYC[Dab]T[Dab][Dab][Dab][dF]L[Dab][Dab]T; disulfide 3-12; lactam 16-C)	1.5	0.5	1.5	0.125	0.5	0.25	0.5	1	
